Experimental findings from patent publication US11458188B2, “ABC transporter peptide inhibitor XH-14C and application thereof” (HUNAN UNIVERSITY OF SCIENCE AND ENGINEERING, priority 2020, dated 2022) are described below.

Like-named read-outs stand apart in the source and are kept apart here.

One assay deals with parental cells (KB-3-1). Put plainly: Modified MTT cytotoxicity assay, parental cells. The note with it: Homo sapiens, KB 3-1, 72 h, read-out: IC50 (cytotoxicity), KB-3-1. In general terms: Tetrazolium dyes change colour on reduction, which living cells bring about.
Assay [1] relates to ABCC1-overexpressing cancer cells (KB-CV60). As to the kind of experiment: Modified MTT cytotoxicity assay, ABCC1-overexpressing cells. The note with it: KB-CV60, 72 h, read-out: IC50 (cytotoxicity), KB-CV60.
Assay [2] concerns parental cancer cell line KB-3-1. Put plainly: MDR reversal study (MTT), parental cancer cell line. The format is cell-based. To be noted: for IC50: read-out: IC50, chemotherapeutic alone.
Experimental: (§1) The cytotoxicity of the peptide in different cell lines was measured by modified MTT assay. 5,000 cells per well were seeded in a 96-well microplate and cultured overnight. Peptides and positive control were added in a designated concentration gradient. The plate was incubated for 68 h, and then added with 20 μL of MTT solution (4 mg/mL) per well and incubated for another 4 h. The medium was pipetted, to which 100 μL of DMSO was added to dissolve the formaldehyde crystals. The absorbance was measured at 570 nm with a UV/Vis microplate spectrophotometer.
In assay [3] the test system is transfected empty vector cell line HEK293/pcDNA3.1. Put plainly: MDR reversal study (MTT), transfected empty vector cell line. It counts as cell-based. To be noted: for IC50: read-out: IC50, chemotherapeutic alone.
Experimental: as §1
For assay [4], the system named is drug-induced ABCC1-overexpressing cancer cell line KB-CV60. Put plainly: MDR reversal study (MTT), drug-induced ABCC1-overexpressing cell line. The format is cell-based. The note with it: for IC50: Table 5, no reversal agent, read-out: IC50, chemotherapeutic alone.
The subject of assay [5] is transfected ABCC1-overexpressing cell line HEK293/ABCC1. Put plainly: MDR reversal study (MTT), transfected ABCC1-overexpressing cell line. The format is cell-based. To be noted: for IC50: Table 6, no reversal agent, read-out: IC50, chemotherapeutic alone.
Assay [6] has as its system transfected ABCB1-overexpressing cell line HEK293/ABCB1. As to the kind of experiment: MDR reversal study (MTT), transfected ABCB1-overexpressing cell line. To be noted: Table 4, IC50 divided by IC50 in HEK293/pcDNA3.1.
Experimental: as §1
The test system of assay [7] is drug-induced ABCB1-overexpressing cancer cell line KB-C2. Put plainly: MDR reversal study (MTT), drug-induced ABCB1-overexpressing cell line. The note with it: Table 3, IC50 divided by IC50 in KB-3-1.
Experimental: as §1
The subject of assay [8] is ABCB1-overexpressing cancer cells (KB-C2). Put plainly: Modified MTT cytotoxicity assay, ABCB1-overexpressing cells. The note with it: Homo sapiens, KB-C2, 72 h, read-out: IC50 (cytotoxicity), KB-C2.
Experimental: as §1

What is called IC50 is the point on the concentration scale where inhibition reaches its midpoint. Regarding `CC[C@]1(O)C[C@H]2CN(CCc3c([nH]c4ccccc34)[C@@](C(=O)OC)(c3cc4c(cc3OC)N(C=O)[C@H]3[C@@](O)(C(=O)OC)[C@H](OC(C)=O)[C@]5(CC)C=CCN6CC[C@]43[C@@H]65)C2)C1` [Vincristine], the IC50 in the assay on parental cells (KB-3-1) came to 0.095 µM; in assay [1], 16.1 µM; in [4], 16.1 µM; in assay [5], 2.71 µM. The “RF (resistance fold), chemotherapeutic alone” value is listed as 1.00 in assay [2] (Table 5, no reversal agent); 1.00 in assay [3] (Table 6, no reversal agent); 169.05 in assay [4] (Table 5, IC50 divided by IC50 in KB-3-1); 19.79 in assay [5] (Table 6, IC50 divided by IC50 in HEK293/pcDNA3.1).
In the case of `CN(C)C(=O)CCSC(SCCC(=O)O)c1cccc(/C=C/c2ccc3ccc(Cl)cc3n2)c1` (centres unmarked) [MK571], in assay [3] (Table 6, MK571 5 μM), the “RF of Cisplatin + MK571” value worked out at 0.99 and the “RF of Vincristine + MK571” value is listed as 1.02.
With `COc1cccc2c1C(=O)c1c(O)c3c(c(O)c1C2=O)C[C@@](O)(C(=O)CO)C[C@@H]3O[C@H]1C[C@H](N)[C@H](O)[C@H](C)O1` [Adriamycin], the “RF (resistant fold), chemotherapeutic alone” value in [2] (Table 3, no reversal agent) was found to be 1.00; in assay [7] it was 58.84. For the same compound, the “RF (resistance fold), chemotherapeutic alone” value in [3] (Table 4, no reversal agent) is 1.00; in assay [6] it was 25.29.
As to `CC(=O)O[C@H]1C(=O)[C@@]2(C)[C@H]([C@H](OC(=O)c3ccccc3)[C@]3(O)C[C@H](OC(=O)[C@H](O)[C@@H](NC(=O)c4ccccc4)c4ccccc4)C(C)=C1C3(C)C)[C@]1(OC(C)=O)CO[C@@H]1C[C@@H]2O` [Paclitaxel], the IC50 stood at 0.03 µM with parental cells (KB-3-1) and 1.77 µM in [8]. In assay [2] (Table 3, no reversal agent), the “RF (resistant fold), chemotherapeutic alone” value is listed as 1.00.
On to `N.N.[Cl][Pt][Cl]` [Cisplatin], for which the IC50 in [2] (Table 3, no reversal agent) came out at 1.79 µM; in [2] (Table 5, no reversal agent), 1.79 µM; in [3] (Table 4, no reversal agent), 2.21 µM; in assay [3] (Table 6, no reversal agent), 2.21 µM; in [4], 2.23 µM; in [5], 2.23 µM.
